“Also recorded” adds a separate entry of the source. Where two headings read alike, the source gives them in different places.
Experiments:
[1] = biological target: S. mansoni p97 (Smp_018240) (Schistosoma mansoni, UniProt G4M0P7); assay type: biochemical
Experimental: (§1) Evaluation of p97’s ATPase activity and compound potency
(§2) For manual ATP consumption assays, 1 µM p97 was incubated with 1% DMSO or inhibitor (1% DMSO final) in assay buffer [50 mM Tris (pH 7.5), 20 mM MgCl2, 1 mM EDTA, 0.5 mM tris(2-carboxyethyl)phosphine (TCEP)] for 5 minutes prior to the addition of 20 µM ATP in a 384-well plate for a total reaction volume of 10 µL, and a final concentration of 500nM enzyme and 10 µM ATP. The reaction was allowed to proceed for 50 minutes at room temperature before adding equivalent volume of Kinase-Glo Plus reagent (Promega), and a further incubation of 10 minutes in the dark. Luminescence was read using a BioTek Synergy 2 plate reader […]
1 μM, 500 nM, 100 nM, 50 nM, 10 nM, 5 nM, 1 nM, and 0 nM) in triplicate, maintaining a concentration of 1% […]
were calculated using GraphPad Prism. […]

H. sapiens p97 (P55072) = biological target: T1, H. sapiens p97 (P55072) (Homo sapiens, UniProt P55072); assay: Kinase-Glo ATP consumption assay, recombinant H. sapiens p97; assay type: biochemical; details: 100 μM to 1 nM
T1 construct: purified recombinant full-length (1-806aa) H; 6xHis (N); made in house; host or cells: E. coli BL21 (DE3)
T1 sequence (P55072 whole entry): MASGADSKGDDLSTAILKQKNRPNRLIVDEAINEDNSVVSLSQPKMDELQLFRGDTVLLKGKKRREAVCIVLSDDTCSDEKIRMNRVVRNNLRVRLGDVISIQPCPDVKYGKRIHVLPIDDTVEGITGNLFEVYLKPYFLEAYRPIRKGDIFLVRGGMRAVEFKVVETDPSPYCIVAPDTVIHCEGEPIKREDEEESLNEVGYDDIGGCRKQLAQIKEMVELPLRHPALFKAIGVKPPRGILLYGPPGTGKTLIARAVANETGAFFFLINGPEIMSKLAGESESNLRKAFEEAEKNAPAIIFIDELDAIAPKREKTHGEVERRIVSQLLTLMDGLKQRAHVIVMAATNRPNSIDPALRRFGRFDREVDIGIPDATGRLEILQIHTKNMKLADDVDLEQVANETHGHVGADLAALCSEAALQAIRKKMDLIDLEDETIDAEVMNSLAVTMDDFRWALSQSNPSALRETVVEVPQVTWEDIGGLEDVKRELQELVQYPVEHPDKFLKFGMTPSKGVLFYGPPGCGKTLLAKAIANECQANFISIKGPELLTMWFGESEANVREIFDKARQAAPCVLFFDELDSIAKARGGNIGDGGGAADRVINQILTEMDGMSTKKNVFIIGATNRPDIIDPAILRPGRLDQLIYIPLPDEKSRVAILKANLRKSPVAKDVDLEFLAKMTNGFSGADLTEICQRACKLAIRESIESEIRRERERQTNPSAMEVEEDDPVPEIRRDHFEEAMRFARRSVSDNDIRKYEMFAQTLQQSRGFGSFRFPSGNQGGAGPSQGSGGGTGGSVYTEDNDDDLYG

adult S. mansoni [2] = assay: Dose-response of compounds on adult worms (attachment to culture substrate, EC50); assay type: cell-based, Schistosoma mansoni; details: read-out: EC50 of commercial inhibitors of human orthologs on adult parasites
Experimental: (§3) DMSO). All selected compounds were obtained from commercial vendors (Medchemexpress, Selleck Chemicals, Sigma-Aldrich, ApexBio, Tocris, Santa Cruz Biotechnology, and Cayman Chemical Company) (Dataset S4) with […]
(§4) the activity of the desired compounds. Roughly 5 adult worm pairs were placed in 3mL Basch medium in a 12-well culture vessel, and incubated at 37° C, 5% CO2 for the length of the experiment. Compound was administered at D0, D1, and D2, media and drug refreshed every 24 hr. Worms were then allowed to remain in culture until D5, where a final assessment of worm attachment to tissue culture substate was made by light microscopy.
Observations on movement and morphology were also recorded. A negative control (0.1% DMSO) and positive control (PZQ; 10 µM in 0.1% DMSO) were included in each experiment, and each experiment was repeated in triplicate for validation. For compounds that caused complete detachment in replicate experiments, the treatment was expanded to three concentrations (10 µM, 5 µM, and 1 µM) following the same treatment schedule and controls as detailed above.
Each titration experiment was performed in triplicate according to the treatment regimen described above, using DMSO and PZQ as appropriate controls. Morphologies and motility were assessed by light microscopy, and dose-response curves were calculated using the primary readout of parasite attachment to tissue culture substrate in GraphPad Prism.
(§5) For drug treatment studies, 10 male adult worms (single or paired with females) were supplemented with either 0.1% DMSO or inhibitor (0.1% DMSO final). For all experiments assessing on-target effects of potential parasite […]
(§6) After 48 hr, male parasites were separated […]
(§7) further processing. Male worm samples were homogenized with a pestle in 50 µL lysis buffer containing 2X […]
(Roche, cOmplete Mini, EDTA-free Tablets) and 10 mM DTT. The lysates were then sonicated on high for 5 min (30 sec on, 30 sec off) using a Bioruptor UCD-200. […]
Compounds were tested from 100 μM – 1 nM. Values were calculated using Prism.

adult S. mansoni [3] = assay: Single-concentration (10 μM) treatment of adult worms, attachment and morphology; assay type: cell-based, Schistosoma mansoni; details: in vitro culture
Experimental: as §3, §4
Observations on movement and morphology were also recorded. A negative control (0.1% DMSO) and positive control (PZQ; 10 µM in 0.1% DMSO) were included in each experiment, and each experiment was repeated in triplicate for validation. […]

[4] = system: K48 polyubiquitinated proteins in adult S. mansoni; assay: Western blot of K48 polyubiquitinated proteins in lysate of drug-treated worms; assay type: cell-based, Schistosoma mansoni; details: adult worm lysate after 48 h of treatment
Experimental: as §3
the activity of the desired compounds. Roughly 5 adult worm pairs were placed in 3mL Basch medium in a 12-well culture vessel, and incubated at 37° C, 5% CO2 for the length of the experiment. […]
as §5, §6, §7
(Roche, cOmplete Mini, EDTA-free Tablets) and 10 mM DTT. The lysates were then sonicated on high for 5 min (30 sec on, 30 sec off) using a Bioruptor UCD-200. Lysates were centrifuged for 5 min at 10,000 g to remove […]
debris. Total protein was measured using the Detergent Compatible Bradford Assay (Pierce). 50 µg of protein samples denatured in SDS Sample buffer (95°C for 5 min) were separated on a Bio-Rad 4-20% TGX Stain-Free gel along with Precision Plus Protein Dual Color Standards (Bio-Rad) as a marker. Proteins were then transferred to a nitrocellulose membrane (Bio-Rad). The membrane was blocked in a 1:5 solution of Li-Cor Odyssey Blocking buffer in PBST for 1 hr before being immunoblotted overnight at 4°C with 1:500 K48-linkage Specific […]
(1:10,000) (Developmental Studies Hybridoma Bank, JLA20) diluted in a 1:5 solution of Li-Cor Odyssey Blocking buffer in PBST. The membrane was washed 3x in TBST and then incubated in 1:5 Li-Cor Odyssey […]
in TBST 3x before being imaged on a LiCor Odyssey Infrared Imager. […]

[5] = system: S. mansoni vcp/p97 (Smp_018240); assay: High-throughput screen of S. mansoni p97 (Kinase-Glo, single concentration); assay type: biochemical, Schistosoma mansoni; details: for Screen Inhibition (%): 10 μM compound, normalized to CB-5083 control; for inhibition of S. mansoni p97 function in the screen: high-throughput screen, 10 μM
Experimental: as §1
as §2, with “dark.” for “dark. Luminescence was read using a BioTek Synergy 2 plate reader”
High-throughput screening (HTS) assay
Kinase-Glo (Promega, part K1214) was purchased from Promega. Microtiter plates (384 wells) were purchased from Perkin Elmer. All chemicals included in the UTSW library were sourced from commercial sources […]
TimTec (500)] or UT Southwestern chemists (https://www.utsouthwestern.edu/research/core-facilities/high- […]
throughput-screening/libraries/). […]
concentration of 10 µM (0.2% DMSO). Luminescence was read by EnVision multimode plate reader (Perkin-Elmer). Assay conditions were consistent between manual and high-throughput assays [10 µM ATP, 50 mM Tris (pH 7.5), 20 mM MgCl2, 1 mM EDTA, 0.5 mM tris(2-carboxyethyl)phosphine (TCEP)]. The plates were then incubated for 50 min at room temperature before addition of Kinase-Glo reagent and further incubation in the dark for 10 minutes before reading luminescence. […]
were obtained to determine activity of compounds on the enzyme. […]

[6] = H. sapiens p97 IC50 versus S. mansoni p97 IC50
[7] = recombinant Hsp97, Kinase-Glo, NA = no notable effect on the enzyme at tested concentrations, >100 = IC50 predicted above 100 μM or maximal inhibition not achieved
[8] = recombinant full-length enzyme, Kinase-Glo, 100 μM to 1 nM
[9] = recombinant full-length enzyme, Kinase-Glo

S. mansoni p97 (Smp_018240), sequence (G4M0P7 entry or part of it): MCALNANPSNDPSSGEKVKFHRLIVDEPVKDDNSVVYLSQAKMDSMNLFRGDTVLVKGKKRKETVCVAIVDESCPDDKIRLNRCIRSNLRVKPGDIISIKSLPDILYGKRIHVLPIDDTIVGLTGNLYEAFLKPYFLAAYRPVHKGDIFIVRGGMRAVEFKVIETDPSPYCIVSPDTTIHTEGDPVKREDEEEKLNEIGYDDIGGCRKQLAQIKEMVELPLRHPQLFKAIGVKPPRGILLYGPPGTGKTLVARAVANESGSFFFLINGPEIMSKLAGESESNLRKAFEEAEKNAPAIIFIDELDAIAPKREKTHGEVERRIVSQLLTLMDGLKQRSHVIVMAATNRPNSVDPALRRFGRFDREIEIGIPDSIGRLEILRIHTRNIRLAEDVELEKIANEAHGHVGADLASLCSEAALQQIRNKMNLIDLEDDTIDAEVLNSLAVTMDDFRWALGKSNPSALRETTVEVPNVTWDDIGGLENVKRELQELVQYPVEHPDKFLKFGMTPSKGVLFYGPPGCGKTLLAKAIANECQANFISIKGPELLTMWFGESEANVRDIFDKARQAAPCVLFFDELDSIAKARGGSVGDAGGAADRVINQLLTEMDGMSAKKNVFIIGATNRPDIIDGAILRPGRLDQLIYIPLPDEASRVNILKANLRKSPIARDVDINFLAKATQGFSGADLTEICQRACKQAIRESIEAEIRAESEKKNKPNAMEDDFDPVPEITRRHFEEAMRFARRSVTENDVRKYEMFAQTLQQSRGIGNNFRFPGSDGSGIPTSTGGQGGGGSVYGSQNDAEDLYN

| Molecule | IC50 [1] [nM] | Fold Selectivity (parasite enzyme over human enzyme) [1, 6] [fold] | IC50 (H. sapiens p97 (P55072); [7]) [nM] | phenotype of adult worms after treatment (adult S. mansoni [3]) | Screen Inhibition (%) [5] [%] | also measured |
| --- | --- | --- | --- | --- | --- | --- |
| Cc1cccnc1-c1nc2cc(NC(=O)C#Cc3ccncc3)ccc2o1 [Compound 804] | 190 ± 63 | 0.70 | 140 ± 62 | – | – | – |
| Cc1ccnc(-c2nc3cc(NC(=O)C#Cc4ccncc4)ccc3o2)c1 [Compound 805] | 170 ± 92 | 0.80 | 140 ± 78 | – | – | – |
| AG-270 | – | – | – | – | – | EC50 (adult S. mansoni [2]): 180 nM |
| O=C(C#CC1CC1)Nc1ccc2oc(-c3ccccn3)nc2c1 [Compound 732] | – | – | – | still active on worms | – | – |
| COc1cccc2c(NCc3ccccc3)nc(-n3c(N)nc4ccccc43)nc12 [ML240, reference compound] | – | – | – | killed parasites quickly | – | accumulation of K48 polyubiquitinated proteins by western blot [4]: did not observe the same accumulation; Fold Selectivity (parasite enzyme over human enzyme) [1]: ~ fivefold; IC50 [1, 8]: 66 ± 9.7 nM; IC50 (H. sapiens p97 (P55072); [9]): 330 ± 61 nM |
| O=C(/C=C\c1ccccc1)Nc1ccc2oc(-c3ccccc3)nc2c1 [Compound 324] | – | – | – | – | 1.1 | inhibition of S. mansoni p97 function in the screen [5]: inactive |
| O=C(CCc1ccccc1)Nc1ccc2oc(-c3ccccn3)nc2c1 [Compound 326] | – | – | – | – | 2.2 | inhibition of S. mansoni p97 function in the screen [5]: inactive |
| O=C(C#Cc1ccccc1)Nc1ccc2oc(-c3ccccn3)nc2c1 [Compound 243] | 2100 ± 750 | – | 20000 ± 540 | led to death in adult parasites; also recorded: ultimately leading to their death | 46 | Fold Selectivity (parasite enzyme over human enzyme) [1]: 9.5 fold |
| O=C(C#Cc1ccccc1)Nc1ccc2oc(-c3ccncc3)nc2c1 [Compound 242] | 1400 ± 110 | 8.6 | 12000 ± 310 | led to death in adult parasites; also recorded: ultimately leading to their death | 47 | – |
| O=C(C#Cc1ccc(Cl)cc1)Nc1ccc2oc(-c3ccccn3)nc2c1 [Compound 736] | 5900 ± 1300 | 1.1 | 6700 ± 55 | decreased activity on the worms | – | – |
| O=C(C#Cc1cccc(Cl)c1)Nc1ccc2oc(-c3ccccn3)nc2c1 [Compound 735] | 11000 ± 470 | 0.70 | 7300 ± 660 | still active on worms | – | – |
| Cc1cccc(-c2nc3cc(NC(=O)C#Cc4ccncc4)ccc3o2)n1 [Compound 807] | 670 ± 170 | 0.70 | 490 ± 57 | – | – | – |
| O=C(C#Cc1ccncc1)Nc1ccc2oc(-c3ccccn3)nc2c1 [Compound 739] | – | 2.1 | 320 ± 26 | death of the parasites | – | accumulation of K48 polyubiquitinated proteins by western blot [4]: on-target activity by western blot; IC50 [1, 8]: 150 nM |
| O=C(C#Cc1ccccc1)Nc1ccc2oc(-c3cccnc3)nc2c1 [Compound 244] | – | – | – | did not have any adverse effects on worm health and survival | 16 | – |
| O=C(C#Cc1ccccc1)Nc1ccc2oc(-c3ccccc3)nc2c1 [Compound 245] | 3800 ± 190 | – | – | did cause detachment, it did not lead to parasite death | 36 | – |
| O=C(C=Cc1ccccc1)Nc1ccc2oc(-c3ccccc3)nc2c1 [Compound 135] | – | – | – | – | 1.1 | inhibition of S. mansoni p97 function in the screen [5]: inactive |
| Cc1ccc(-c2nc3cc(NC(=O)C#Cc4ccncc4)ccc3o2)nc1 [Compound 806] | 470 ± 170 | 1.1 | 510 ± 160 | – | – | – |
| O=C(C#Cc1cccnc1)Nc1ccc2oc(-c3ccccn3)nc2c1 [Compound 738] | 420 ± 57 | 1.9 | 780 ± 140 | death of the parasites | – | – |
| CC(C)N1CCN(CCNC2CCN(c3cccc(-c4cc5cc(F)ccc5[nH]4)c3)CC2)CC1 [UPCDC-30245, reference compound] | – | – | – | effective | – | accumulation of K48 polyubiquitinated proteins by western blot [4]: did not see significant increases in K48 abundance; selectivity between schistosome and human p97 [1]: selective in favor of the human enzyme; IC50 [1, 8]: 4100 nM; IC50 (H. sapiens p97 (P55072); [9]): 970 ± 67 nM |
| CC1(C)C(N(O)C(=O)Nc2ccc(Cl)cc2)N(c2ccc(Cl)cc2)C(=O)N1CC(=O)N/N=C/C=C/c1ccc([N+](=O)[O-])o1 (stereo not shown) [Eeyarestatin I, reference compound] | – | – | – | effective | – | accumulation of K48 polyubiquitinated proteins by western blot [4]: did not see significant increases in K48 abundance |
| O=C(C#Cc1ccccn1)Nc1ccc2oc(-c3ccccn3)nc2c1 [Compound 737] | 3000 ± 410 | 4.3 | 13000 ± 2200 | decreased activity on the worms | – | – |
| c1ccc(CNc2nc(NCc3ccccc3)c3ccccc3n2)cc1 [DbeQ, reference compound] | – | – | – | activity on the worms | – | accumulation of K48 polyubiquitinated proteins by western blot [4]: did not observe the same accumulation; IC50 [1, 8]: 12000 nM; IC50 (H. sapiens p97 (P55072); [9]): 910 ± 390 nM |
| COc1ccc(C#CC(=O)Nc2ccc3oc(-c4ccccn4)nc3c2)cc1 [Compound 734] | 48000 ± 2600 | 1.7 | 83000 ± 6500 | decreased activity on the worms | – | – |
